Experimental data as given in article PMC4071299 (Toxicology Reports, 2014).
Where two headings read alike, the source gives them in different places.

What was measured:
MCF-7 cells = conditions: cited from earlier work
[1] = test system: estrogen sulfotransferase SULT1E1; conditions: crystallographic studies; cited from earlier work
[2] = male SD rats, cited from earlier work; for Cmax: read-out: plasma Cmax
[3] = Plasma toxicokinetics of free TBBPA after oral or IV administration; type: in vivo, female Crl:WI(Han) rats; conditions: for AUC: free TBBPA in plasma; for half-life: iv, 25 mg/kg
human transthyretin = conditions: cited from earlier work
[4] = Disposition and elimination of [14C]-radioactivity after single oral; type: in vivo, female Crl:WI(Han) rats
[5] = test system: rat thyroid hormone receptor; conditions: cited from earlier work
[6] = Biliary elimination in bile-duct cannulated rats after oral dose; type: in vivo, female Crl:WI(Han) rats; conditions: oral […] mg/kg, 6 h
MtT/E-2 cells = conditions: lower extent than bisphenol A; cited from earlier work
rats [7] = conditions: single dose by gavage to rats; cited from earlier work
[8] = Disposition of [14C]-radioactivity after IV administration of TBBPA; type: in vivo, female Crl:WI(Han) rats; conditions: IV 25 mg/kg
[9] = test system: progesterone receptor (PR); conditions: transfected yeast; cited from earlier work
rats [10] = conditions: cited from earlier work
estradiol sulfation = conditions: in vitro; cited from earlier work
[11] = 20 mg/kg, male F-344 rats; cited from earlier work
TTR = conditions: cited from earlier work
[12] = Elimination and distribution after repeated oral administration; type: in vivo, female Crl:WI(Han) rats; conditions: […] mg/kg for 5 days

For `CC(C)(O)c1cc(Br)c(O)c(Br)c1` [2,6-dibromo-4-[2-hydroxypropane-2-yl]-phenol], the estrogenic activity (MCF-7 cells) is given as “estrogenic activity”.
For `COC(C)(C)c1cc(Br)c(O)c(Br)c1` [2,6-dibromo-4-[2-methoxypropane-2-yl]-phenol], the estrogenic activity (MCF-7 cells) is given as “estrogenic activity”.
In the case of `CC(C)(c1cc(Br)c(O)c(Br)c1)c1cc(Br)c(O)c(Br)c1` [TBBPA, 2,2′,6,6′-Tetrabromo-4,4′-isopropylidene diphenol], the “binding to SULT1E1” value [1] is listed as “high affinity”, the Tmax ([2]; oral 200, 500 and 1000 mg/kg) is listed as 252 to 300 min and the Cmax ([2]; 300 mg/kg) is listed as 103 µM. The Cmax ([2]; oral 200 mg/kg) was 23 µM, the Cmax ([2]; oral 500 mg/kg) was 34 µM and the Cmax ([2]; oral 1000 mg/kg) was 57 µM. The “administered radioactivity remaining in plasma” value ([3]; IV 25 mg/kg, 6 h post dose) was about 2%, the AUC ([3]; IV (25 mg/kg)) was 4286 nmol·min/mL and the AUC ([3]; Oral ([…] mg/kg)) was 1729 nmol·min/mL. For the same compound, the half-life ([3]; female, Crl:WI(Han), rat, plasma, distribution half-life, IV 25 mg/kg, two-compartment model) was 2 min, the half-life ([3]; female, Crl:WI(Han), rat, plasma, terminal half-life, IV 25 mg/kg, non-compartmental analyses) was 133 min and the half-life ([3]; female, Crl:WI(Han), rat, plasma, terminal half-life, IV 25 mg/kg, two-compartment model) was 22 min. The Cmax ([3]; female, Crl:WI(Han), rat, plasma, po, 250 mg/kg) was 5.4 µM, the binding to transthyretin (human transthyretin) was “bind” and the “dose recovery in feces in 72 h” value ([4]; oral 25 mg/kg) was 95.7 ± 3.5%. For the same compound, the “dose recovery in feces in 72 h” value ([4]; oral 1000 mg/kg) was 98.8 ± 2.2%, the “dose recovered in urine” value ([4]; oral 25, 250 or 1000 mg/kg, 72 h) was 0.2–2 % of dose and the “dose recovery in feces in 72 h” value ([4]; oral […] mg/kg) was 94.3 ± 3.6%. For the same compound, the “radioactivity in tissues at 24 h” value ([4]; oral […] mg/kg) was under 2%, the “[14C]-radioactivity, blood” value ([4]; oral […] mg/kg, 1 h) was 0.6 ± 0.2 % dose and the “[14C]-radioactivity, blood” value ([4]; oral […] mg/kg, 3 h) was 0.4 ± 0.2 % dose. The “[14C]-radioactivity, feces” value ([4]; oral […] mg/kg, 6 h) was 0.1 ± 0.1 % dose, the “[14C]-radioactivity, urine” value ([4]; oral […] mg/kg, 6 h) was 1.2 ± 0.7 % dose and the “[14C]-radioactivity, blood” value ([4]; oral […] mg/kg, 24 h) was 0.06 ± 0.05 % dose. For the same compound, the “[14C]-radioactivity, feces” value ([4]; oral […] mg/kg, 24 h) was 82 ± 18 % dose, the “[14C]-radioactivity, large intestine” value ([4]; oral […] mg/kg, 24 h) was 0.3 ± 0.1 % dose and the “[14C]-radioactivity, urine” value ([4]; oral […] mg/kg, 24 h) was 0.3 ± 0.1 % dose. The “administered [14C]-radioactivity detected in tissues” value ([4]; tissues collected at 72 h following oral doses) was under 0.1%, the “binding to thyroid hormone receptor” value [5] was “high affinity” and the “[14C]-radioactivity, bile” value [6] was 6 ± 7 % dose. For the same compound, the cell proliferation (MtT/E-2 cells) was “enhanced proliferation”, the LD50 (rats [7]) was “greater than 5 g/kg” and the “administered radioactivity eliminated in feces within 6 h” value [8] was “Approx. 10%”. For the same compound, the “administered radioactivity eliminated in urine within 6 h” value [8] was about 1%, the “dose recovered in contents of large intestine” value ([8]; 6 h post dose) was about 61% and the “dose recovered in contents of small intestine” value ([8]; 6 h post dose) was “approx. 15%”. The “[14C]-radioactivity, all other tissues” value ([8]; 6 h post-dose) was “less than 1 % of the administered dose”, the “[14C]-radioactivity, adipose” value ([8]; 6 h post-dosing) was 1 ± 0.8% and the “[14C]-radioactivity, large intestine” value ([8]; 6 h post-dosing) was 3.2 ± 3%. The “[14C]-radioactivity, liver” value ([8]; 6 h post-dosing) was 1.8 ± 0.6%, the “[14C]-radioactivity, small intestine” value ([8]; 6 h post-dosing) was 3.2 ± 3.1% and the estrogenic activity (MCF-7 cells) was “estrogenic activity”. The PR activity [9] was “antagonist”, the “toxicity after intraperitoneal administration” value (rats [10]) was “hepatotoxicity and heme metabolism disturbances” and the “effect on estradiol sulfation” value (estradiol sulfation) was “inhibitor”. For the same compound, the systemic bioavailability [11] was 1.6%, the TTR binding (TTR) was “T4 competitor” and the “terminal dose recovered from feces” value ([12]; 24 h after final ([14C]) dose) was 84 ± 8%. The “dose recovered in urine” value ([12]; 24 h after final dose) was “Less than 1%” and the tissue retention ([12]; 24 h after final dose) was “minimal”.
